According to patent publication US4045488A, “Aminophenyltetralin compounds” (Pfizer Inc., priority 1976, dated 1977):
Where a name gives a salt, the structure may show the parent alone.

Experiments:
[1] = test system: spontaneous motor activity; experiment: spontaneous motor activity in mice (circular actophotometers, activity counts); assay type: in vivo, mouse; conditions: for hyperactive response: same conditions, 0.32-32 mg./kg. i.p.
Protocol: (§1) On the other hand, the activity of the compounds of the present invention, as psychomotor stimulants, is based on a variety of tests, including (1) a study of their motor activity in mice and (2) a measurement of their ability to influence the loss of avoidance behavior in rats trained on a non-discriminated (Sidman) avoidance schedule.
A total of seven mice was employed at each dose level tested (viz., at 0.32, 1.0, 3.2, 10 and 32 mg./kg., i.p., respectively) and these mice were separated one to an activity cage. After an initial 1/2 hour exposure period (for acclimation purposes), each animal in the cage was treated with a sample of the drug intraperitoneally and immediately thereafter returned to said cage, with activity counts every 1/2 hour being recorded from that point on.

[2] = psychotropic (antidepressant, psychomotor stimulant) activity and side effects of the compounds, general statements; assay type: in vivo; conditions: general statement; compounds and their hydrochloride acid addition salts
[3] = test system: non-discriminated (Sidman) avoidance behavior; experiment: non-discriminated (Sidman) avoidance behavior in rats, response rates; assay type: in vivo, rat; conditions: 5 and 10 mg./kg. i.p.
From the text: as §1
Eight mature male rats were trained in Lehigh Valley automatic multiple-operant conditioning chambers to avoid a 2.0 mA electric shock that would last for 0.75 second, or terminate sooner if the rat lever became activated during the shock. In these tests, lever presses postponed the onset of shock for an initial period of 30 seconds, while only 10 seconds elapsed between shocks if no intervening response was elicited. The rats were run for a 40-minute control period before receiving the drug and then for approximately 2.5 hours after each treatment.

CN[C@@H]1CC[C@@H](c2ccccc2)c2ccccc21 (relative stereo) [Trans-isomer of Example IV, trans-dl-N-methyl-4-phenyl-1,2,3,4-tetrahydro-1-naphthylamine hydrochloride]
time course (duration) of effect ([1]; after 32 mg./kg.): especially long-lived

N[C@@H]1CC[C@@H](c2ccccc2)c2ccccc21 (relative stereo) [trans-dl-4-phenyl-1,2,3,4-tetrahydro-1-naphthylamine]
antidepressant activity [2]: markedly high degree of antidepressant activity

CN(C)[C@@H]1CC[C@@H](c2ccccc2)c2ccccc21 (relative stereo) [trans-dl-N,N-dimethyl-4-phenyl-1,2,3,4-tetrahydro-1-naphthylamine]
antidepressant activity [2]: markedly high degree of antidepressant activity

c1ccc([C@@H]2CC[C@@H](NC3CC3)c3ccccc32)cc1 (relative stereo) [trans-dl-N-cyclopropyl-4-phenyl-1,2,3,4-tetrahydro-1-naphthylamine]
antidepressant activity [2]: markedly high degree of antidepressant activity

CCN[C@@H]1CC[C@@H](c2ccccc2)c2ccccc21 (relative stereo) [trans-dl-N-ethyl-4-phenyl-1,2,3,4-tetrahydro-1-naphthylamine]
antidepressant activity [2]: markedly high degree of antidepressant activity

CC(C)N[C@@H]1CC[C@@H](c2ccccc2)c2ccccc21 (relative stereo) [trans-dl-N-isopropyl-4-phenyl-1,2,3,4-tetrahydro-1-naphthylamine]
antidepressant activity [2]: markedly high degree of antidepressant activity

CN[C@@H]1CC[C@@H](c2ccccc2)c2ccccc21 (relative stereo) [trans-dl-N-methyl-4-phenyl-1,2,3,4-tetrahydro-1-naphthylamine]
antidepressant activity [2]: markedly high degree of antidepressant activity

CN[C@@H]1CC[C@@H](c2ccccc2)c2ccccc21 [Trans-d-isomer of Example III, trans-d-N-Methyl-4-phenyl-1,2,3,4-tetrahydro-1-naphthylamine as the hydrochloride]
duration of drug effect after administration [3]: approximately one and a half
start of drug effect [3]: ≤ 20 min
effect on response rates ([3]; in four out of eight rats): moderate to marked increase in response rates
increase of response rates over normal pre-drug control levels ([3]; in four out of eight rats): 2-6 times
increase of response rates over pre-drug control levels ([3]; in two other rats): about 1.5 times
effect on activity counts compared with d-amphetamine sulfate and methylphenidate ([1]; 10 mg./kg. i.p. versus d-amphetamine sulfate 3.2 mg./kg. and methylphenidate 10 mg./kg.): more pronounced than that of d-amphetamine sulfate at 3.2 mg./kg. and surpassing even that of methylphenidate at 10 mg./kg.
effect on activity counts ([1]; 10 mg./kg. i.p., 30-60 minutes after treatment): markedly elevated the activity counts
time course (duration) of effect ([1]; 10 mg./kg. versus d-amphetamine sulfate 3.2 mg./kg.): even more prolonged in its effect than did that of d-amphetamine sulfate

CN[C@H]1CC[C@H](c2ccccc2)c2ccccc21 [Trans-l-isomer of Example III, trans-l-N-methyl-4-phenyl-1,2,3,4-tetrahydro-1-naphthylamine hydrochloride]
stimulant effect ([1]; tested at 10 and 32 mg./kg. i.p.): little evidence of a stimulant effect

CNCCCN1c2ccccc2CCc2ccccc21 [desmethylimipramine, reference compound]
hyperactive response [1]: failed to elicit any hyperactive response whatsoever

CNCCCC1c2ccccc2C=Cc2ccccc21 [protriptlyine, reference compound]
hyperactive response [1]: failed to elicit any hyperactive response whatsoever

CN[C@@H]1CC[C@@H](c2ccccc2)c2ccccc21 [trans-d-N-methyl-4-phenyl-1,2,3,4-tetrahydro-1-naphthylamine]
antidepressant activity [2]: markedly high degree of antidepressant activity
